Patent publication US20050238628A1, “Methods for treating cancer” (priority 2004, published 2005)
Entries after “also recorded” stand apart in the source; their conditions may differ.

Tests used:
[1] = tested on: Ba/F3 cells expressing the GyrB/Flt3 construct; test: Growth of Ba/F3 cells expressing GyrB/Flt3 in the presence of the CID coumermycin; assay type: cell-based; details: FIG. 1
Source text: (§1) An MSCV-based vector was constructed that encodes a fusion protein containing a myristylation domain linked to DNA gyrase B, which in turn is linked to the intracellular portion of murine flt-3, which in turn is linked to an HA epitope tag. […] Ba/F3 cells expressing the GyrB/Flt3 construct can be distinguished from Ba/F3 cells expressing EpoR/Abl using intracellular flow cytometry with an antibody directed against the HA tag.

[2] = tested on: Ba/F3 cells expressing EpoR/Abl mixed with Ba/F3 cells expressing GyrB/Flt3; test: Mixed culture of EpoR/Abl and GyrB/Flt3 Ba/F3 cells, HA tag flow cytometry; assay type: cell-based; details: coumermycin 1 nM, absence of IL-3, 4 days, flow cytometry for HA tag; FIG. 2
Method: A cDNA containing the EpoRIAbl construct was used to transduce Ba/F3 cells by retroviral gene transfer. After two days, IL-3 containing medium was washed away, and cells were cultured in the presence of erythropoietin (3 units/ml), without IL-3, to generate a polyclonal pool of erythropoietin dependent cells.
as §1
After 4 days, the frequency of cells expressing the HA tag was determined by flow cytometry.

[3] = tested on: Reh cells (EpoR); test: STAT5 phosphorylation in Reh cells upon addition of erythropoietin; assay type: cell-based; details: human TEL/AML1+ ALL line
Source text: A number of nonerythroid cell lines have been examined for EpoR expression.

[4] = tested on: Ba/F3EpoRAbl cells; details: nude mice, tail vein injection of cells followed by injections of erythropoietin; cited from earlier work

Substance: coumermycin
- growth of Ba/F3 cells in the presence of the CID [1]: capable of growth; also recorded: capable of group
- erythropoietin responsive (HA-negative) cells in mixed culture [2]: sharp reduction in erythropoietin responsive (HA-negative) cells

Substance: erythropoietin
- STAT5 phosphorylation [3]: exhibit STAT5 phosphorylation
- death of mice injected with Ba/F3EpoRAbl cells [4]: induce death with a timecourse that is dependent on the concentration of exogenously administered Epo
